# According to patent publication US20100292214A1, “Compounds with Antiparasitic Activity, Applications thereof to the Treatment of Infectious Diseases Caused by Apicomplexans” (commissariat a l'Energie Atomique, priority 2007, published 2010):
# Where a name gives a salt, the structure may show the parent alone.
# What was measured:
# [1] = test system: Toxoplasma gondii RH-β1 strain; test: microbe, parasite or virus in culture; assay type: cell-based; details: Toxoplasma gondii, read-out: IC50 assessed on Toxoplama Gondii
# [2] = test system: asynchronous 3D7 chloroquine-sensitive P. falciparum infected red blood cells; test: Labeled hypoxanthine incorporation assay (in vitro anti-malarial activity); assay type: cell-based; details: Plasmodium falciparum, 3D7, Erythrocyte, 3D7 chloroquine-sensitive strain, infected RBC, 48 h contact, [3H]-hypoxanthine incorporation; two independent experiments in duplicates; read-out: IC50 assessed on Plasmodium Falciparum
Structure (SMILES),IC50 [1] [µM],IC50 [2] [µM]
"C[C@@H](COC(=O)N1CCC(Nc2ccccc2N)CC1)N(Cc1ccccc1)Cc1ccccc1 [Compound 87, (S)-2-(dibenzylamino)propyl 4-(2-aminophenylamino)piperidine-1-carboxylate]",12.9,10.3
"O=C(CCCN(Cc1ccccc1)Cc1ccccc1)N1CCC(n2c(=O)[nH]c3ccccc32)CC1 [Compound 96, 1-[1-(4-Dibenzylamino-butyryl)-piperidin-4-yl]-1,3-dihydrobenzoimidazol-2-one]",6.3,11.3
"C[C@@H](COC(=O)N1CCC(n2c(=O)n(S(=O)(=O)c3ccc(C(F)(F)F)cc3)c3ccccc32)CC1)N(Cc1ccccc1)Cc1ccccc1 [Compound 58, (S)-2-(dibenzylamino)propyl 4-(2-oxo-3-(4-(trifluoromethyl)phenylsulfonyl)-2,3-dihydro-1H-benzo[d]imidazol-1-yl)piperidine-1-carboxylate]",8.5,0.42
"C[C@@H](COC(=O)N1CCCC(n2c(=O)[nH]c3ccccc32)CC1)N(Cc1ccccc1)Cc1ccccc1 (stereo partly drawn) [Compound 13, (S)-2-(dibenzylamino)propyl 4-(1,2-dihydro-2-oxobenzo[d]imidazol-3-yl)azepane-1-carboxylate]",5,10.7
"O=C(OCCN(Cc1ccccc1)Cc1ccc(Br)cc1)N1CCC(n2c(=O)[nH]c3ccccc32)CC1 [Compound 115, 2-(benzyl(4-bromobenzyl)amino)ethyl 4-(2-oxo-2,3-dihydro-1H-benzo[d]imidazol-1-yl)piperidine-1-carboxylate hydrochloride]",3.2,4.41
"O=C(OCCCN(Cc1ccccc1)Cc1cccc2ccccc12)N1CCC(n2c(=O)[nH]c3ccccc32)CC1 [Compound 144, 3-(benzyl(naphthalen-1-ylmethyl)amino)propyl 4-(2-oxo-2,3-dihydro-1H-benzo[d]imidazol-1-yl)piperidine-1-carboxylate hydrochloride]",2.7,3.24
"C[C@@H](COC(=O)N1CCC(n2c(N)nc3ccccc32)CC1)N(Cc1ccccc1)Cc1ccccc1 [Compound 177, (S)-2-(dibenzylamino)propyl 4-(2-amino-1H-benzo[d]imidazol-1-yl)piperidine-1-carboxylate]",3.8,–
"O=C(Oc1ccc(N(Cc2ccccc2)Cc2ccccc2)cc1)N1CCC(n2c(=O)[nH]c3ccccc32)CC1 [Compound 178, 4-(dibenzylamino)phenyl 4-(1,2-dihydro-2-oxobenzo[d]imidazol-3-yl)piperidine-1-carboxylate]",1.3,–
"CN(CCOC(=O)N1CCC(n2c(=O)[nH]c3ccccc32)CC1)Cc1ccccc1 [Compound 27, 2-(N-benzyl-N-methylamino)ethyl 4-(1,2-dihydro-2-oxobenzo[d]imidazol-3-yl)piperidine-1-carboxylate]",2,–
"O=C(OCC1CCCCN1Cc1ccccc1)N1CCC(n2c(=O)[nH]c3ccccc32)CC1 (stereo not drawn) [Compound 182, (1-benzylpiperidin-2-yl)methyl 4-(1,2-dihydro-2-oxobenzo[d]imidazol-3-yl)piperidine-1-carboxylate]",5,–
"O=C(OCCCN(Cc1ccccc1)Cc1cccc(OCc2ccccc2)c1)N1CCC(n2c(=O)[nH]c3ccccc32)CC1 [Compound 188, 3-(benzyl(3-(benzyloxy)benzyl)amino)propyl 4-(2-oxo-2,3-dihydro-1H-benzo[d]imidazol-1-yl)piperidine-1-carboxylate]",3,–
"CC(C)N(CCOC(=O)N1CCC(n2c(=O)[nH]c3ccccc32)CC1)C(C)C [Compound 34, 2-(diisopropylamino)ethyl 4-(1,2-dihydro-2-oxobenzo[d]imidazol-3-yl)piperidine-1-carboxylate]",27,–
"O=C(OCc1ccccc1)N1CCC(n2c(=O)[nH]c3ccccc32)CC1 [Compound 181, Benzyl 4-(1,2-dihydro-2-oxobenzo[d]imidazol-3-yl)piperidine-1-carboxylate]",0.3,–
"CCN(CC)CCOC(=O)N1CCC(n2c(=O)[nH]c3ccccc32)CC1 [Compound 39, 2-(diethylamino)ethyl 4-(1,2-dihydro-2-oxobenzo[d]imidazol-3-yl)piperidine-1-carboxylate]",12,–
"O=C(OCCCCCCN(Cc1ccccc1)Cc1ccccc1)N1CCC(n2c(=O)[nH]c3ccccc32)CC1 [Compound 180, 6-(dibenzylamino)hexyl 4-(1,2-dihydro-2-oxobenzo[d]imidazol-3-yl)piperidine-1-carboxylate]",2,–
"O=C(OC[C@H](Cc1ccccc1)N(Cc1ccccc1)Cc1ccccc1)N1CCC(N(c2ccccc2)S(=O)(=O)c2ccc(C(F)(F)F)cc2)CC1 [Compound 183, (S)-2-(dibenzylamino)-3-phenylpropyl 4-(N-phenyl-4-(trifluoromethyl)phenylsulfonamido)piperidine-1-carboxylate]",3.1,–
"C[C@@H](COC(=O)N1CCC(n2c(=O)n(C(=O)C(C)(C)C)c3ccccc32)CC1)N(Cc1ccccc1)Cc1ccccc1 [Compound 66, (S)-2-(dibenzylamino)propyl 4-(1,2-dihydro-2-oxo-1-(pivaloyl)benzo[d]imidazol-3-yl)piperidine-1-carboxylate]",2.8,–

Structure (SMILES),IC50 [1] [µM],IC50 [2] [µM]
"CC(C)(C)OC(=O)N(CCOC(=O)N1CCC(n2c(=O)[nH]c3ccccc32)CC1)Cc1ccccc1 [Compound 185, 2-(benzyl(tert-butoxycarbonyl)amino)ethyl 4-(2-oxo-2,3-dihydro-1H-benzo[d]imidazol-1-yl)piperidine-1-carboxylate]",2,–
"CN(C)CCOC(=O)N1CCC(n2c(=O)[nH]c3ccccc32)CC1 [Compound 35, 2-(dimethylamino)ethyl 4-(1,2-dihydro-2-oxobenzo[d]imidazol-3-yl)piperidine-1-carboxylate]",4,–
"C[C@@H](COC(=O)N1CCC(n2c(=O)[nH]c3ccccc32)CC1)N(Cc1ccccc1)Cc1ccc(F)cc1 [Compound 184, (S)-2-(benzyl(4-fluorobenzyl)amino)propyl 4-(2-oxo-2,3-dihydro-1H-benzo[d]imidazol-1-yl)piperidine-1-carboxylate hydrochloride]",3.3,–
"O=C(OCCOCc1ccccc1)N1CCC(n2c(=O)[nH]c3ccccc32)CC1 [Compound 31, 2-(benzyloxy)ethyl 4-(1,2-dihydro-2-oxobenzo[d]imidazol-3-yl)piperidine-1-carboxylate]",0.5,–
"O=C(OC1CCCN(Cc2ccccc2)C1)N1CCC(n2c(=O)[nH]c3ccccc32)CC1 (stereo not drawn) [Compound 33, 1-benzylpiperidin-3-yl 4-(1,2-dihydro-2-oxobenzo[d]imidazol-3-yl)piperidine-1-carboxylate]",0.45,–
"CCc1cccc(CC)c1NC1CCN(C(=O)OC[C@H](Cc2ccccc2)N(Cc2ccccc2)Cc2ccccc2)CC1 [Compound 175, (S)-2-(dibenzylamino)-3-phenylpropyl 4-(2,6-diethylphenylamino)piperidine-1-carboxylate]",–,2.6
"CSc1ccccc1NC1CCN(C(=O)OC[C@H](Cc2ccccc2)N(Cc2ccccc2)Cc2ccccc2)CC1 [Compound 176, (S)-2-(dibenzylamino)-3-phenylpropyl 4-(2-(methylthio)phenylamino)piperidine-1-carboxylate]",–,2.65
"O=C(OCCN(Cc1ccccc1)Cc1c(F)cccc1F)N1CCC(n2c(=O)[nH]c3ccccc32)CC1 [Compound 101, 2-(benzyl(2,6-difluorobenzyl)amino)ethyl 4-(2-oxo-2,3-dihydro-1H-benzo[d]imidazol-1-yl)piperidine-1-carboxylate]",–,5.37
"O=C(OCCCN(CCCc1ccccc1)Cc1ccccc1)N1CCC(n2c(=O)[nH]c3ccccc32)CC1 [Compound 148, 3-(benzyl(3-phenylpropyl)amino)propyl 4-(2-oxo-2,3-dihydro-1H-benzo[d]imidazol-1-yl)piperidine-1-carboxylate hydrochloride]",–,4.61
"COC(=O)c1ccc(CN(CCOC(=O)N2CCC(n3c(=O)[nH]c4ccccc43)CC2)Cc2ccccc2)cc1 [Compound 187, 2-(benzyl(4-(methoxycarbonyl)benzyl)amino)ethyl 4-(2-oxo-2,3-dihydro-1H-benzo[d]imidazol-1-yl)piperidine-1-carboxylate]",2.2,–
"COc1ccc(CN(CCCOC(=O)N2CCC(n3c(=O)[nH]c4ccccc43)CC2)Cc2ccccc2)cc1 [Compound 117, 3-(benzyl(4-methoxybenzyl)amino)propyl 4-(2-oxo-2,3-dihydro-1H-benzo[d]imidazol-1-yl)piperidine-1-carboxylate hydrochloride]",–,1.87
"Cn1c(CN(CCCOC(=O)N2CCC(n3c(=O)[nH]c4ccccc43)CC2)Cc2ccccc2)cc2ccccc21 [Compound 186, 3-(benzyl((1-methyl-1H-indol-2-yl)methyl)amino)propyl 4-(2-oxo-2,3-dihydro-1H-benzo[d]imidazol-1-yl)piperidine-1-carboxylate hydrochloride]",4.8,–
"C[C@@H](COC(=O)N1CCC(c2cccc3[nH]c(=O)[nH]c23)CC1)N(Cc1ccccc1)Cc1ccccc1 [Compound 179, (S)-2-(dibenzylamino)propyl 4-(2-oxo-2,3-dihydro-1H-benzo[d]imidazol-4-yl)piperidine-1-carboxylate]",3.25,–
"O=C(OCCCN(Cc1ccccc1)Cc1ccc(F)cc1)N1CCC(n2c(=O)[nH]c3ccccc32)CC1 [Compound 147, 3-(benzyl(4-fluorobenzyl)amino)propyl 4-(2-oxo-2,3-dihydro-1H-benzo[d]imidazol-1-yl)piperidine-1-carboxylate hydrochloride]",–,2.22
"O=C(OCC(Cc1ccccc1)NCc1ccccc1)N1CCC(n2c(=O)[nH]c3ccccc32)CC1 (stereo not drawn) [Compound 190, 2-(benzylamino)-3-phenylpropyl 4-(2-oxo-2,3-dihydro-1H-benzo[d]imidazol-1-yl)piperidine-1-carboxylate]",0.8,–
"CC(C)C[C@@H](COC(=O)N1CCC(n2c(=O)[nH]c3ccccc32)CC1)NCc1ccccc1 [Compound 189, (S)-2-(benzylamino)-4-methylpentyl 4-(2-oxo-2,3-dihydro-1H-benzo[d]imidazol-1-yl)piperidine-1-carboxylate]",2.3,–
